Source: ChEMBL document CHEMBL1143799, “Synthesis and primary cytotoxicity evaluation of new imidazo[2,1-b]thiazole derivatives” (2007)

Experiments:
Assay type in all cases: functional
[1] = system: MOLT-4; test: Growth inhibition of human MOLT4 cells after 48 hrs by SRB protein assay; conditions: MOLT-4, 48 h; for TGI: read-out: Log TGI (converted)
[2] = system: RPMI-8226; test: Growth inhibition of human RPMI8226 cells after 48 hrs by SRB protein assay; conditions: RPMI-8226, 48 h; for TGI: read-out: Log TGI (converted)
[3] = system: EKVX; test: Growth inhibition of human EKVX cells after 48 hrs by SRB protein assay; conditions: for TGI: read-out: Log TGI (converted)
[4] = system: HOP-62; test: Growth inhibition of human HOP62 cells after 48 hrs by SRB protein assay; conditions: HOP-62, 48 h; for TGI: read-out: Log TGI (converted)
[5] = system: HOP-92; test: Growth inhibition of human HOP92 cells after 48 hrs by SRB protein assay; conditions: HOP-92, 48 h; for TGI: read-out: Log TGI (converted)
[6] = system: NCI-H23; test: Growth inhibition of human NCI-H23 cells after 48 hrs by SRB protein assay; conditions: NCI-H23, 48 h; for TGI: read-out: Log TGI (converted)
[7] = system: NCI-H322M; test: Growth inhibition of human NCI-H322M cells after 48 hrs by SRB protein assay; conditions: for TGI: read-out: Log TGI (converted)
[8] = system: NCI-H460; test: Growth inhibition of human NCI-H460 cells after 48 hrs by SRB protein assay; conditions: NCI-H460, 48 h; for TGI: read-out: Log TGI (converted)
[9] = system: NCI-H522; test: Growth inhibition of human NCI-H522 cells after 48 hrs by SRB protein assay; conditions: NCI-H522, 48 h; for TGI: read-out: Log TGI (converted)
[10] = system: COLO 205; test: Growth inhibition of human COLO205 cells after 48 hrs by SRB protein assay; conditions: COLO 205, 48 h; for TGI: read-out: Log TGI (converted)
[11] = system: HCT-116; test: Growth inhibition of human HCT116 cells after 48 hrs by SRB protein assay; conditions: HCT-116, 48 h; for TGI: read-out: Log TGI (converted)
[12] = system: HCT-15; test: Growth inhibition of human HCT15 cells after 48 hrs by SRB protein assay; conditions: HCT-15, 48 h; for TGI: read-out: Log TGI (converted)
[13] = system: KM12; test: Growth inhibition of human KM12 cells after 48 hrs by SRB protein assay; conditions: KM12, 48 h; for TGI: read-out: Log TGI (converted)
[14] = system: SW-620; test: Growth inhibition of human SW620 cells after 48 hrs by SRB protein assay; conditions: SW-620, 48 h; for TGI: read-out: Log TGI (converted)
[15] = system: SF-268; test: Growth inhibition of human SF268 cells after 48 hrs by SRB protein assay; conditions: SF-268, 48 h; for TGI: read-out: Log TGI (converted)
[16] = system: SF-295; test: Growth inhibition of human SF295 cells after 48 hrs by SRB protein assay; conditions: SF-295, 48 h; for TGI: read-out: Log TGI (converted)
[17] = system: SF-539; test: Growth inhibition of human SF539 cells after 48 hrs by SRB protein assay; conditions: SF-539, 48 h; for TGI: read-out: Log TGI (converted)
[18] = system: SNB-19; test: Growth inhibition of human SNB19 cells after 48 hrs by SRB protein assay; conditions: SNB-19, 48 h; for TGI: read-out: Log TGI (converted)
[19] = system: SNB-75; test: Growth inhibition of human SNB75 cells after 48 hrs by SRB protein assay; conditions: SNB-75, 48 h; for TGI: read-out: Log TGI (converted)
[20] = system: U-251; test: Growth inhibition human U251 of cells after 48 hrs by SRB protein assay; conditions: U-251, 48 h; for TGI: read-out: Log TGI (converted)
[21] = system: LOX IMVI; test: Growth inhibition of human LOX IMVI cells after 48 hrs by SRB protein assay; conditions: for TGI: read-out: Log TGI (converted)
[22] = system: M14; test: Growth inhibition of human M14 cells after 48 hrs by SRB protein assay; conditions: M14, 48 h; for TGI: read-out: Log TGI (converted)
[23] = system: SK-MEL-2; test: Growth inhibition of human SK-MEL-2 cells after 48 hrs by SRB protein assay; conditions: SK-MEL-2, 48 h; for TGI: read-out: Log TGI (converted)
[24] = system: SK-MEL-28; test: Growth inhibition of human SK-MEL-28 cells after 48 hrs by SRB protein assay; conditions: SK-MEL-28, 48 h; for TGI: read-out: Log TGI (converted)
[25] = system: UACC-257; test: Growth inhibition of human UACC257 cells after 48 hrs by SRB protein assay; conditions: UACC-257, 48 h; for TGI: read-out: Log TGI (converted)
[26] = system: UACC-62; test: Growth inhibition of human UACC62 cells after 48 hrs by SRB protein assay; conditions: UACC-62, 48 h; for TGI: read-out: Log TGI (converted)
[27] = system: IGROV-1; test: Growth inhibition of human IGROV1 cells after 48 hrs by SRB protein assay; conditions: IGROV-1, 48 h; for TGI: read-out: Log TGI (converted)
[28] = system: OVCAR-3; test: Growth inhibition of human OVCAR-3 cells after 48 hrs by SRB protein assay; conditions: OVCAR-3, 48 h; for TGI: read-out: Log TGI (converted)
[29] = system: SK-OV-3; test: Growth inhibition of human SK-OV-3 cells after 48 hrs by SRB protein assay; conditions: SK-OV-3, 48 h; for TGI: read-out: Log TGI (converted)
[30] = Growth inhibition of human 786O cells after 48 hrs by SRB protein assay; conditions: 786-0, 48 h; for TGI: read-out: Log TGI (converted)
[31] = system: ACHN; test: Growth inhibition of human ACHN cells after 48 hrs by SRB protein assay; conditions: for TGI: read-out: Log TGI (converted)
[32] = system: RXF 393; test: Growth inhibition of human RXF393 cells after 48 hrs by SRB protein assay; conditions: RXF 393, 48 h; for TGI: read-out: Log TGI (converted)
[33] = system: SN12C; test: Growth inhibition of human SN12C cells after 48 hrs by SRB protein assay; conditions: for TGI: read-out: Log TGI (converted)
[34] = system: UO-31; test: Growth inhibition of human UO31 cells after 48 hrs by SRB protein assay; conditions: UO-31, 48 h; for TGI: read-out: Log TGI (converted)
[35] = system: MCF7; test: Growth inhibition of human MCF7 cells after 48 hrs by SRB protein assay; conditions: MCF7, 48 h; for TGI: read-out: Log TGI (converted)
[36] = system: MDA-MB-231; test: Growth inhibition of MDA-MB-231 cells after 48 hrs by SRB protein assay; conditions: Homo sapiens, MDA-MB-231, 48 h; for TGI: read-out: Log TGI (converted)
[37] = system: Hs-578T; test: Growth inhibition of human HS578T cells after 48 hrs by SRB protein assay; conditions: for TGI: read-out: Log TGI (converted)
[38] = system: MDA-MB-435; test: Growth inhibition of human MDA-MB-435 cells after 48 hrs by SRB protein assay; conditions: MDA-MB-435, 48 h; for TGI: read-out: Log TGI (converted)
[39] = system: BT-549; test: Growth inhibition of human BT549 cells after 48 hrs by SRB protein assay; conditions: BT-549, 48 h; for TGI: read-out: Log TGI (converted)

## O=C(Cc1csc2nc(-c3ccc(Br)cc3)cn12)N/N=C/c1ccccc1O
[1]
  GI50: 2.34 µM
  TGI: 10.7 µM
[2]
  GI50: 2.82 µM
  TGI: 20.9 µM
[3]
  GI50: 3.89 µM
  TGI: 19.1 µM
[4]
  GI50: 3.89 µM
  TGI: 14.8 µM
[5]
  GI50: 2.09 µM
  TGI: 14.5 µM
[6]
  GI50: 3.39 µM
  TGI: 14.1 µM
[7]
  GI50: 2.14 µM
  TGI: 10.7 µM
[8]
  GI50: 15.8 µM
  TGI: > 100 µM
[9]
  GI50: 5.25 µM
  TGI: 26.9 µM
[10]
  GI50: 5.13 µM
  TGI: 22.9 µM
[11]
  GI50: 3.24 µM
  TGI: 12.3 µM
[12]
  GI50: 0.955 µM
  TGI: 17.4 µM
[13]
  GI50: 3.63 µM
  TGI: 17 µM
[14]
  GI50: 3.98 µM
  TGI: 17.4 µM
[15]
  GI50: > 100 µM
  TGI: > 100 µM
[16]
  GI50: 2.75 µM
  TGI: 9.33 µM
[17]
  GI50: 3.55 µM
  TGI: 11.7 µM
[18]
  GI50: 6.76 µM
  TGI: 25.1 µM
[19]
  GI50: 12.9 µM
  TGI: 32.4 µM
[20]
  GI50: 3.63 µM
  TGI: 15.1 µM
[21]
  GI50: 3.47 µM
  TGI: 12.9 µM
[22]
  GI50: 2.57 µM
  TGI: 7.76 µM
[23]
  GI50: 20.9 µM
  TGI: 53.7 µM
[24]
  GI50: 12 µM
  TGI: 24 µM
[25]
  GI50: 3.72 µM
  TGI: 11.5 µM
[26]
  GI50: 2.09 µM
  TGI: 7.24 µM
[27]
  GI50: 1.05 µM
  TGI: 11.5 µM
[28]
  GI50: 3.24 µM
  TGI: 15.1 µM
[29]
  GI50: 12.9 µM
  TGI: 30.2 µM
[30]
  GI50: 4.68 µM
  TGI: 17.8 µM
[31]
  GI50: 1.58 µM
  TGI: 6.31 µM
[32]
  GI50: 38 µM
  TGI: 63.1 µM
[33]
  GI50: 3.31 µM
  TGI: 15.8 µM
[34]
  GI50: 7.08 µM
  TGI: > 100 µM
[35]
  GI50: 13.2 µM
  TGI: > 100 µM
[36]
  GI50: 3.24 µM
  TGI: 17 µM
[37]
  GI50: 13.5 µM
  TGI: 42.7 µM
[38]
  GI50: 3.31 µM
  TGI: 13.5 µM
[39]
  GI50: 10 µM
  TGI: 22.4 µM

## Nc1nc2[nH]cnc2c(=S)[nH]1 [THIOGUANINE]
[1]
  GI50: 0.269 µM
  TGI: 15.5 µM
[2]
  GI50: 0.398 µM
  TGI: 20.9 µM
[3]
  GI50: 1.91 µM
  TGI: 123 µM
[4]
  GI50: 0.741 µM
  TGI: 28.8 µM
[5]
  GI50: 0.741 µM
  TGI: 24 µM
[6]
  GI50: 1.07 µM
  TGI: 22.9 µM
[7]
  GI50: 7.41 µM
  TGI: 224 µM
[8]
  GI50: 0.676 µM
  TGI: 20 µM
[9]
  GI50: 0.912 µM
  TGI: 6.31 µM
[10]
  GI50: 1.7 µM
  TGI: 8.91 µM
[11]
  GI50: 0.537 µM
  TGI: 16.2 µM
[12]
  GI50: 1.1 µM
  TGI: 51.3 µM
[13]
  GI50: 1.74 µM
  TGI: 31.6 µM
[14]
  GI50: 18.6 µM
  TGI: 63.1 µM
[15]
  GI50: 1.15 µM
  TGI: 158 µM
[16]
  GI50: 1.02 µM
  TGI: 158 µM
[17]
  GI50: 1.02 µM
  TGI: 69.2 µM
[18]
  GI50: 79.4 µM
  TGI: 245 µM
[19]
  GI50: 1.45 µM
  TGI: 41.7 µM
[20]
  GI50: 4.9 µM
  TGI: 240 µM
[21]
  GI50: 0.209 µM
  TGI: 9.12 µM
[22]
  GI50: 0.589 µM
  TGI: 14.5 µM
[23]
  GI50: 0.933 µM
  TGI: 10.7 µM
[24]
  GI50: 8.91 µM
  TGI: 155 µM
[25]
  GI50: 2 µM
  TGI: 97.7 µM
[26]
  GI50: 0.501 µM
  TGI: 4.57 µM
[27]
  GI50: 4.79 µM
  TGI: 145 µM
[28]
  GI50: 0.708 µM
  TGI: 6.76 µM
[29]
  GI50: 0.55 µM
  TGI: 16.6 µM
[30]
  GI50: 0.832 µM
  TGI: 107 µM
[31]
  GI50: 1.95 µM
  TGI: 112 µM
[32]
  GI50: 0.759 µM
  TGI: 7.08 µM
[33]
  GI50: 1.26 µM
  TGI: 174 µM
[34]
  GI50: 1.48 µM
  TGI: 32.4 µM
[35]
  GI50: 0.708 µM
  TGI: 42.7 µM
[36]
  GI50: 1.95 µM
  TGI: 166 µM
[37]
  GI50: 7.41 µM
  TGI: 182 µM
[38]
  GI50: 0.851 µM
  TGI: 32.4 µM
[39]
  GI50: 3.63 µM
  TGI: 162 µM
